Laboratory results reported in PubChem BioAssay (NCI).
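48-hour exposure; five concentrations; linearly interpolated endpoints. GI50 is the concentration that inhibits growth by half. TGI: concentration producing complete growth inhibition.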

What was measured:
Assay in all cases: NCI anticancer screen, dose series, 48 h
[1] = tested on: NCI-H522 lung
[2] = tested on: A498 renal
[3] = tested on: KM12 colon
[4] = tested on: HOP-92 NSCLC
[5] = tested on: SW-620 colon
[6] = tested on: IGROV1 ovarian
[7] = tested on: OVCAR-8 ovarian
[8] = tested on: SR leukemia
[9] = tested on: RPMI-8226 leukemia
[10] = tested on: SN12C renal
[11] = tested on: SK-MEL-5 melanoma
[12] = tested on: HCT-15 colon
[13] = tested on: HOP-62 NSCLC
[14] = tested on: MOLT-4 leukemia
[15] = tested on: OVCAR-5 ovarian
[16] = tested on: TK-10 renal
[17] = tested on: OVCAR-4 ovarian
[18] = tested on: LOX IMVI melanoma
[19] = tested on: NCI-H23 lung
[20] = tested on: HCC-2998 colon
[21] = tested on: MALME-3M melanoma
[22] = tested on: M14 melanoma
[23] = tested on: A549 NSCLC
[24] = tested on: HCT-116 colon
[25] = tested on: PC-3 prostate
[26] = tested on: MDA-MB-231 breast
[27] = tested on: HT29 colon
[28] = tested on: SK-OV-3 ovarian
[29] = tested on: EKVX NSCLC
[30] = tested on: SK-MEL-2 melanoma
[31] = tested on: SK-MEL-28 melanoma
[32] = tested on: NCI-H460 lung
[33] = tested on: NCI/ADR-RES ovarian
[34] = tested on: HL-60(TB) leukemia
[35] = tested on: SF-295 CNS
[36] = tested on: SF-268 CNS
[37] = tested on: 786-0 renal
[38] = tested on: COLO 205 colon
[39] = tested on: T-47D breast
[40] = tested on: CCRF-CEM leukemia
[41] = tested on: K-562 leukemia
[42] = tested on: U251 CNS
[43] = tested on: SNB-75 CNS
[44] = tested on: BT-549 breast
[45] = tested on: UO-31 renal
[46] = tested on: UACC-257 melanoma
[47] = tested on: SF-539 CNS
[48] = tested on: NCI-H226 lung
[49] = tested on: UACC-62 melanoma
[50] = tested on: SNB-19 CNS
[51] = tested on: HS 578T breast
[52] = tested on: DU-145 prostate
[53] = tested on: OVCAR-3 ovarian
[54] = tested on: ACHN renal
[55] = tested on: CAKI-1 renal
[56] = tested on: RXF 393 renal
[57] = tested on: MDA-MB-435
[58] = tested on: MCF7 breast

Compound `O=C(c1ccco1)c1c(C(F)(F)F)nc2ccc(C(F)(F)F)cc2[n+]1[O-]` has a GI50 [1] of 62.1 µM, a TGI [1] of over 100 µM and a GI50 [2] of 42.4 µM. It also gave a TGI [2] of over 79.7 µM, a GI50 [3] of 68 µM and a TGI [3] of over 100 µM. The GI50 [4] was 21 µM, the TGI [4] was 49.2 µM and the GI50 [5] was over 59.1 µM. It also gave a TGI [5] of over 100 µM, a GI50 [6] of 35.6 µM and a TGI [6] of over 92.7 µM. For the same compound, the GI50 [7] was 35.3 µM, the TGI [7] was over 100 µM and the GI50 [8] was over 91.7 µM. For the same compound, the TGI [8] was over 100 µM, the GI50 [9] was over 100 µM and the TGI [9] was over 100 µM. For the same compound, the GI50 [10] was 43.4 µM, the TGI [10] was over 100 µM and the GI50 [11] was 31.4 µM. For the same compound, the TGI [11] was over 67.1 µM, the GI50 [12] was over 86.9 µM and the TGI [12] was over 100 µM. The GI50 [13] was 19.8 µM, the TGI [13] was 46.3 µM and the GI50 [14] was over 100 µM. For the same compound, the TGI [14] was over 100 µM, the GI50 [15] was 46.9 µM and the TGI [15] was over 100 µM. For the same compound, the GI50 [16] was 23.9 µM, the TGI [16] was 50 µM and the GI50 [17] was 24.1 µM. It also gave a TGI [17] of 68.6 µM, a GI50 [18] of 47.8 µM and a TGI [18] of over 100 µM. The GI50 [19] was over 80.4 µM, the TGI [19] was over 100 µM and the GI50 [20] was 57.6 µM. It also gave a TGI [20] of over 100 µM, a GI50 [21] of 20.8 µM and a TGI [21] of 47.7 µM. It also gave a GI50 [22] of 35.8 µM, a TGI [22] of over 100 µM and a GI50 [23] of over 64.4 µM. For the same compound, the TGI [23] was over 100 µM, the GI50 [24] was 29.3 µM and the TGI [24] was over 100 µM. The GI50 [25] was 41.9 µM, the TGI [25] was over 100 µM and the GI50 [26] was 23.7 µM. The TGI [26] was 65.4 µM, the GI50 [27] was over 61.4 µM and the TGI [27] was over 100 µM. The GI50 [28] was 35 µM, the TGI [28] was over 100 µM and the GI50 [29] was 19.9 µM. It also gave a TGI [29] of over 69.6 µM, a GI50 [30] of over 64.6 µM and a TGI [30] of over 100 µM. For the same compound, the GI50 [31] was 25.2 µM, the TGI [31] was 80.6 µM and the GI50 [32] was over 63.2 µM. It also gave a TGI [32] of over 100 µM, a GI50 [33] of 44.2 µM and a TGI [33] of over 100 µM. It also gave a GI50 [34] of over 100 µM, a TGI [34] of over 100 µM and a GI50 [35] of 33.2 µM. It also gave a TGI [35] of over 100 µM, a GI50 [36] of 33.3 µM and a TGI [36] of 99.5 µM. For the same compound, the GI50 [37] was 27 µM, the TGI [37] was 62 µM and the GI50 [38] was over 100 µM. The TGI [38] was over 100 µM, the GI50 [39] was 36.3 µM and the TGI [39] was over 87.5 µM. For the same compound, the TGI [40] was over 49.4 µM, the GI50 [41] was over 73.8 µM and the TGI [41] was over 100 µM. The GI50 [42] was 25.9 µM, the TGI [42] was 61.5 µM and the GI50 [43] was 16.9 µM. For the same compound, the TGI [43] was 36.4 µM, the GI50 [44] was 24.1 µM and the TGI [44] was 59.8 µM. For the same compound, the GI50 [45] was 38.7 µM, the TGI [45] was over 100 µM and the GI50 [46] was over 52.6 µM. The TGI [46] was over 85.9 µM, the GI50 [47] was 18.3 µM and the TGI [47] was 34.5 µM. For the same compound, the GI50 [48] was 32.1 µM, the TGI [48] was over 100 µM and the GI50 [49] was 44.2 µM. It also gave a TGI [49] of over 100 µM, a GI50 [50] of 27.5 µM and a TGI [50] of over 79.7 µM. The GI50 [51] was 21.2 µM, the TGI [51] was 54.5 µM and the GI50 [52] was 27.3 µM. For the same compound, the TGI [52] was over 75.8 µM, the GI50 [53] was 28 µM and the TGI [53] was over 75.1 µM. For the same compound, the GI50 [54] was 23.4 µM, the TGI [54] was 60 µM and the GI50 [55] was 24.5 µM. It also gave a TGI [55] of over 83.2 µM, a GI50 [56] of 26.5 µM and a TGI [56] of 62.2 µM. It also gave a GI50 [57] of over 81.6 µM, a TGI [57] of over 100 µM and a GI50 [58] of 33.6 µM. It also gave a TGI [58] of over 100 µM.
